Molecular target: T1, SULT1A3 (Homo sapiens, UniProt P0DMM9)
T1 construct: E. coli–optimized SULT coding regions were inserted into a pGEX-6P expression vector; N-His/GST/MBP triple tag (PreScission-cleavable) (N, cleaved yes); made in house; host or cells: E. coli BL21(DE3)
Assay: Initial-rate inhibition of SULT-catalyzed 1-HP sulfonation
Format: biochemical
Details: parentheses 1 SD; for Ki: in vitro initial rate, 1-HP 5.0 μM, PAPS 0.50 mM, pH 7.5, 25 °C; for % Inhibition at saturation: in vitro, saturating inhibitor
Description: Figure 3 Affinity, specificity, and binding sites of CMP12 and CMP13. A and B, inhibition studies. Initial rates of SULT-catalyzed 1-HP sulfonation are plotted as a function of inhibitor concentration. Rates are normalized to the rate observed in the absence of the inhibitor. Inhibition of the major SULT isoforms found in the brain and liver were tested. SULT activity was monitored via the sulfonation-dependent change in 1-HP fluorescence (λex = 325 nm, λem = 375 nm ([15], [28])). Reaction conditions were as follows: SULT (20 nM, active sites), PAPS (0.50 mM, 17 × Km), 1-HP (5.0 μM, 61 × Km), KPO4 (50 mM), pH 7.5, 25(±2) °C. Less than 5% of the concentration-limiting substrate was converted to the product at reaction endpoints. Each data point is the average of three independent determinations. The lines passing through the data are least-squares fits to a noncompetitive partial-inhibition model (see Experiment and Initial rate). C, CMP8 competes with CMP12 and CMP13. Initial rates at saturating CMP12 or CMP13 are plotted as a function of CMP8 concentration. Rates are normalized to the rate observed in the absence of the inhibitor. […] Lines passing through the data are the predictions of a noncompetitive partial-inhibition model in which inhibitors compete for the same site (see Experiment and Binding competition). SULT, sulfotransferase; PAP, 3′-phosphoadenosine-5′-phosphate; SULT1A3, sulfotransferase 1A3; PAPS, 3’-phosphoadenosine 5’-phosphosulfate; 1-HP, 1-hydroxypyrene.
Initial-rate inhibition parameters were obtained from classical initial-rate studies ([16], [28], [43]). Reactions were initiated by addition of PAPS (0.50 mM, 17 × Km) to a solution containing SULT1A3 (20 nM, active sites), inhibitor (0.2–20 × Ki), 1-HP (5.0 μM, 60 × Km), and KPO4 (50 mM), pH 7.5, 25(±2) °C. Reaction progress was monitored via the fluorescence change associated with 1-HP sulfonation (λex = 325 nm, λem = […] ([15], [28])). Less than 5% of the 1-HP was converted to the product at reaction endpoints. Ki and kcat inh (i.e., turnover at saturating inhibitor and substrate) were obtained by fitting to the following quadratic equation for noncompetitive, partial inhibition at [S] >> Km ([44]):(7) v/Vmax=([Etot]+[ESI](α-1))/[Etot] where(8) α=kcat inh/kcat and(9) [ESI]=[([E]tot+[I]tot+Ki)−[([E]tot+[I]tot+Ki)^2−4·[I]tot·[E]tot]^1/2]/2

T1 sequence (P0DMM9 whole entry): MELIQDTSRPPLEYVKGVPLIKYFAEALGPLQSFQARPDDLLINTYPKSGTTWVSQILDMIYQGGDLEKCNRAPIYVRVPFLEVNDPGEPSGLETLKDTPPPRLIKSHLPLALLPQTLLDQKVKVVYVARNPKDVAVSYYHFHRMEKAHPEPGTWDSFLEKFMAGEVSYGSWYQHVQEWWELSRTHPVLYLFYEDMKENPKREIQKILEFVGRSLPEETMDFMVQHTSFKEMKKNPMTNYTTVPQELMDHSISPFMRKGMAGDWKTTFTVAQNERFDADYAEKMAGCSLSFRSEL

Ki	% Inhibition at saturation	SMILES
11 nM	98 (2) %	CC(C)Cc1ccc2cc(/C=C/C(N)=O)cnc2n1 [CMP13]
70 nM	83 (4) %	CC(C)Cc1ccc2cc(CCC(N)=O)ccc2n1 [CMP12]

From paper PMC7948405, “Small-molecule control of neurotransmitter sulfonation” (The Journal of Biological Chemistry, 2020)
